# Read-outs that look alike come from different tables or passages of the source.
# Tests used:
# μOR [1] = target: T1, μOR (Homo sapiens, UniProt P35372); test: cell-based; type: cell-based; conditions: for Emax: read-out: β-arr1 Emax % ± SEM
# μOR [2] = target: T1, μOR; test: cell-based; type: cell-based
# μOR [3] = target: T1, μOR; test: cell-based; type: cell-based; remark: listed apart in the source
# C57BL/6J mice [4] = conditions: mouse, in vivo
# mouse [5] = conditions: in vivo
# mouse [6] = conditions: in vivo; remark: listed apart in the source
# C57BL/6J mice [7] = conditions: mouse, in vivo; remark: listed apart in the source
# C57BL/6J mice [8] = conditions: mouse, in vivo; remark: listed apart in the source
# mouse [9] = conditions: in vivo; remark: listed apart in the source
# T1 sequence (P35372 whole entry): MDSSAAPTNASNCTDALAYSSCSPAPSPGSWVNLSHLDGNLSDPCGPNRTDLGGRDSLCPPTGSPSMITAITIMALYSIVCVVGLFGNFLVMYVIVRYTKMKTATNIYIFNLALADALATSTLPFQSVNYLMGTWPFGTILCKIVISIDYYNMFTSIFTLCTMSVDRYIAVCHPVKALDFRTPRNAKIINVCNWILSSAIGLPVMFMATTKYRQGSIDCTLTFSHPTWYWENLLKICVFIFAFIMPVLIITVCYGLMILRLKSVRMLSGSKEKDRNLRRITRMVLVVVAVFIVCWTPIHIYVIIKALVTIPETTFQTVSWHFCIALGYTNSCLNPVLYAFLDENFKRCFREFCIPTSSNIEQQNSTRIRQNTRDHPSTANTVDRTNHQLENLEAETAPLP
Compound,"β-arrestin-1 recruitment, maximum value (μOR [1])","β-arrestin-1 recruitment, median value (μOR [1])","β-arrestin-1 recruitment, minimum value (μOR [1])","β-arrestin-2 recruitment, maximum value (μOR [2])","β-arrestin-2 recruitment, median value (μOR [2])","β-arrestin-2 recruitment, minimum value (μOR [2])",Gz Emax % ± SEM (μOR [3]),Emax (μOR [1]),β-arr2 Emax % ± SEM (μOR [2]),Emax (μOR [3]; read-out: G0a Emax % ± SEM),Emax (μOR [3]; read-out: G0b Emax % ± SEM),Emax (μOR [3]; read-out: Gi2 Emax % ± SEM),Emax (μOR [3]; read-out: Gi3 Emax % ± SEM),Emax (μOR [3]; read-out: Gz Emax % ± SEM),Emax (μOR [3]; read-out: Gi1 Emax % ± SEM),further results
"CC[C@@H]1CN2CC[C@@]3(O)C(=Nc4cccc(OC)c43)[C@@H]2C[C@@H]1/C(=C\OC)C(=O)OC [7-OH, 7-hydroxymitragynine]",0.3%,−1.4%,−8.0%,25.2%,−2.4%,−13.1%,73 ± 2.8%,,,,,,,,,G0a Emax % ± SEM (μOR [3]): 65 ± 4.9%; G0b Emax % ± SEM (μOR [3]): 56 ± 3.5%; Gi1 Emax % ± SEM (μOR [3]): 31 ± 4.9%; Gi2 Emax % ± SEM (μOR [3]): 53 ± 5.1%; Respiratory effect (C57BL/6J mice [4]; sc): respiratory depression similar to that caused by morphine
C[C@@H](NC(=O)[C@@H](N)Cc1ccc(O)cc1)C(=O)NCC(=O)N(C)[C@@H](Cc1ccccc1)C(=O)NCCO [DAMGO],100%,100%,100%,100%,100%,100%,,,,,,,,,,
CN1CC[C@]23c4c5ccc(O)c4O[C@H]2[C@@H](O)C=C[C@H]3[C@H]1C5 [Morphine],,,,,,,,,,,,,,,,"Antinociception in writhing assay (mouse [5]): significant antinociception compared with vehicle or saline; Number of writhes over 15 min, maximum (mouse [5]): 32; Number of writhes over 15 min, median (mouse [5]): 0; Number of writhes over 15 min, minimum (mouse [5]): 0; Antinociception in formalin assay (mouse [6]): significant antinociception compared with vehicle or saline; Formalin assay response, maximum (mouse [6]): 95 s; Formalin assay response, median (mouse [6]): 7 s; Formalin assay response, minimum (mouse [6]): 1 s; ED50 95% confidence interval (C57BL/6J mice [7]): 4.4 to 8.43 nmol; Median antinociceptive dose (ED50) (C57BL/6J mice [7]): 6.6 nmol; Ambulations (locomotor effect) (C57BL/6J mice [8]): hyperlocomotion; Post-conditioning (post-CPP), maximum (mouse [9]): 819 s; Post-conditioning (post-CPP), median (mouse [9]): 154 s; Post-conditioning (post-CPP), minimum (mouse [9]): -299 s; Pre-conditioning (pre-CPP) difference in time on drug-paired side, minimum (mouse [9]): -542 s; Pre-conditioning (pre-CPP), maximum (mouse [9]): 413 s; Pre-conditioning (pre-CPP), median (mouse [9]): -23 s; Breath rates (C57BL/6J mice [4]): decrease"
COc1ccc2c3c1O[C@H]1C(=O)CC[C@@]4(O)[C@@H](C2)N(C)CC[C@]314 [Oxycodone],,,,,,,full agonist,81 ± 7.9%,80 ± 3.9%,102 ± 5.2%,110 ± 3.4%,83 ± 5.7%,75 ± 3.8%,102 ± 4.9%,,
CC(C)=CCN1CCC2(C)c3cc(O)ccc3CC1C2C (stereo not drawn) [Pentazocine],,,,,,,full agonist,7 ± 4.51%,,89 ± 4%,89 ± 3.2%,78 ± 3.8%,73 ± 2.3%,103 ± 1.5%,75 ± 1.8%,Emax (μOR [2]; read-out: β-arr2 Emax % ± SEM): 13 ± 4.04%
COc1ccsc1CNCC[C@@]1(c2ccccn2)CCOC2(CCCC2)C1 [TRV130],,,,,,,,,26 ± 5.9%,67 ± 5.3%,76 ± 4.4%,58 ± 4.2%,45 ± 3.3%,98 ± 2.2%,58 ± 3.8%,

# — PMC10328120 (Nature, 2022)
